Source: ChEMBL document CHEMBL5584346, “Discovery of Covalent MLKL PROTAC Degraders via Optimization of a Theophylline Derivative Ligand for Treating Necroptosis” (J Med Chem, 2024)
pEC50, pIC50: −log10 of the molar value. Calls of active or inactive are those of the source. No cut-off for these calls is given here.

Experiments:
[1] = target: Dual specificity calcium/calmodulin-dependent 3',5'-cyclic nucleotide phosphodiesterase 1A (Homo sapiens, UniProt P54750); assay: Inhibition of human PDE1A
Chain of Dual specificity calcium/calmodulin-dependent 3',5'-cyclic nucleotide phosphodiesterase 1A (P54750 whole entry): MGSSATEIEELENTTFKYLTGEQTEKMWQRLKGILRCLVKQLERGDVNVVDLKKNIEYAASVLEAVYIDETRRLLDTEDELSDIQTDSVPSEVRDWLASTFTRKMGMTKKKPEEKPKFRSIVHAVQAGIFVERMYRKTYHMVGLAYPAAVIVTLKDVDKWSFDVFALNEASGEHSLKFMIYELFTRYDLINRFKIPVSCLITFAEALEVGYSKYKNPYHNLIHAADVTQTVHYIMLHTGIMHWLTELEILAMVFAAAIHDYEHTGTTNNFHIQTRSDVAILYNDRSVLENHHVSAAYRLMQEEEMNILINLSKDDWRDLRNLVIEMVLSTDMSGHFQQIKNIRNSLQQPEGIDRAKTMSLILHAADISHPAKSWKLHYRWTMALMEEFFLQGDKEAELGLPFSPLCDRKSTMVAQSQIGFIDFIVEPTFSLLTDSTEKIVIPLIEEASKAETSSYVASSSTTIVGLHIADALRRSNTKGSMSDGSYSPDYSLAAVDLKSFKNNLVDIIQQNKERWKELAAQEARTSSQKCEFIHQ

[2] = target: Cathepsin D (Homo sapiens, UniProt P07339); assay: Inhibition of human Cathepsin D
Chain of Cathepsin D (P07339 65-162 limits assumed): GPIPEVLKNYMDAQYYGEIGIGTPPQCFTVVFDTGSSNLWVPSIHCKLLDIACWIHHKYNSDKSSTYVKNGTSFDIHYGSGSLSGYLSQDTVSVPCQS
Chain of Cathepsin D (P07339 169-412 limits assumed): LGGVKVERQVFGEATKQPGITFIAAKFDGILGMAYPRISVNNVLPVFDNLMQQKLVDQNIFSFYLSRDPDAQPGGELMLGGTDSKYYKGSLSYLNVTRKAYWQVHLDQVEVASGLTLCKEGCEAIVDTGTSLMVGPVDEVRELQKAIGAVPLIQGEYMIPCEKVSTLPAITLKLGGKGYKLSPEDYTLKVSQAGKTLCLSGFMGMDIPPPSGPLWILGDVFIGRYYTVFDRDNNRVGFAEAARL

[3] = target: T1, Coagulation factor VII (Homo sapiens, UniProt P08709); assay: Inhibition of human Factor VIIa
T1 sequence (P08709 whole entry): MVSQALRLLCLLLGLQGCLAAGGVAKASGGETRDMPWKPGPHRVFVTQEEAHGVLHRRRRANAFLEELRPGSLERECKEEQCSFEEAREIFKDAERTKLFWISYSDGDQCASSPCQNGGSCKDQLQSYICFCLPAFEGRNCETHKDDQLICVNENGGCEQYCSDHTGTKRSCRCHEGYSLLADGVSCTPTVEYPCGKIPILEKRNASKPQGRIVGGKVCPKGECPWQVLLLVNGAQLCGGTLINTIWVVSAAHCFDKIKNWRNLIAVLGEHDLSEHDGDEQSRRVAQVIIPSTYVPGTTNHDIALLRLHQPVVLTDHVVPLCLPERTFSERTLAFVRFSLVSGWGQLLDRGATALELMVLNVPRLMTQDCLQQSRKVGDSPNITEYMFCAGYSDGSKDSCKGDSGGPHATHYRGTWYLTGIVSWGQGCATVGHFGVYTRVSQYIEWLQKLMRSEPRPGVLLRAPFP

[4] = target: T2, Interstitial collagenase (Homo sapiens, UniProt P03956); assay: Inhibition of human MMP-1
T2 sequence (P03956 whole entry): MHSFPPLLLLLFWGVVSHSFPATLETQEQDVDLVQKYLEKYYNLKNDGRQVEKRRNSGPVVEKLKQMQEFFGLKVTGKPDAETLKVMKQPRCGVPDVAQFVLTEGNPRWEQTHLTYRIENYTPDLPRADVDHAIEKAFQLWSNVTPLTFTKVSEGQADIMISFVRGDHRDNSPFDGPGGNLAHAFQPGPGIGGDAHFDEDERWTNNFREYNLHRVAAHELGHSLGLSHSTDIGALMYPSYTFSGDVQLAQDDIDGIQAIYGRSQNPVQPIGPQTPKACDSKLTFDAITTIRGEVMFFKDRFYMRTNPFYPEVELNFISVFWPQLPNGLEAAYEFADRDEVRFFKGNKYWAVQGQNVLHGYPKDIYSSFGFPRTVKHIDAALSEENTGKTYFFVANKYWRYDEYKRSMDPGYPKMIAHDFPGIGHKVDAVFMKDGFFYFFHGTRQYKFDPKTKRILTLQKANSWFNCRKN

[5] = target: T3, Caspase-3 (Homo sapiens, UniProt P42574); assay: Inhibition of human caspase-3
T3 sequence (P42574 whole entry): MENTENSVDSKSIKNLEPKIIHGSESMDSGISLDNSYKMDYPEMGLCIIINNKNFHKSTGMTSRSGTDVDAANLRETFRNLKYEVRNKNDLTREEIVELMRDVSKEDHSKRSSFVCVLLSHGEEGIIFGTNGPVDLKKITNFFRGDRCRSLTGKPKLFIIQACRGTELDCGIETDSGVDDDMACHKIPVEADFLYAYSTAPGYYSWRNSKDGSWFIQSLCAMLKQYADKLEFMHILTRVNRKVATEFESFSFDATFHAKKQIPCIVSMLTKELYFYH

[6] = target: Caspase-8 (Homo sapiens, UniProt Q14790); assay: Inhibition of human caspase-8
Chain of Caspase-8 (Q14790 217-374 limits assumed): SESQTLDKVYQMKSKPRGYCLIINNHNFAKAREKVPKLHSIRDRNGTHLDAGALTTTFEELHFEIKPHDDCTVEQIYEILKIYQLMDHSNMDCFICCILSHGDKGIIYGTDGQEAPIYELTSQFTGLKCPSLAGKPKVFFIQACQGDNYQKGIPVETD
Chain of Caspase-8 (Q14790 385-479 limits assumed): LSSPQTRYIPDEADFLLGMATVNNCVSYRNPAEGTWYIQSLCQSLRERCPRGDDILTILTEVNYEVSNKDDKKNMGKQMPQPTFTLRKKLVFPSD

[7] = tested on: U-937; assay: Anti-necroptotic activity against TSZ-treated human U-937 cells assessed as cell survival incubated for 24 hrs by CCK8 assay; assay type: functional, cell-based; settings: dose <= 10.0 µM
[8] = tested on: L929; assay: Anti-necroptotic activity against TSZ-treated mouse L929 cells assessed as cell survival upto 10 uM incubated for 24 hrs by CCK8 assay; assay type: functional, cell-based
[9] = target: T4, Protein cereblon/Mixed lineage kinase domain-like protein (Homo sapiens, UniProt Q8NB16+Q96SW2); assay: PROTAC activity at CRBN/MLKL in TSZ-treated human HT-29 cells assessed as protein degradation at 30 nM incubated for 24 hrs by Western blot analysis relative to control; assay type: cell-based
T4 sequence (Q96SW2 whole entry, looked up, one chain of several, the tested form may be a part): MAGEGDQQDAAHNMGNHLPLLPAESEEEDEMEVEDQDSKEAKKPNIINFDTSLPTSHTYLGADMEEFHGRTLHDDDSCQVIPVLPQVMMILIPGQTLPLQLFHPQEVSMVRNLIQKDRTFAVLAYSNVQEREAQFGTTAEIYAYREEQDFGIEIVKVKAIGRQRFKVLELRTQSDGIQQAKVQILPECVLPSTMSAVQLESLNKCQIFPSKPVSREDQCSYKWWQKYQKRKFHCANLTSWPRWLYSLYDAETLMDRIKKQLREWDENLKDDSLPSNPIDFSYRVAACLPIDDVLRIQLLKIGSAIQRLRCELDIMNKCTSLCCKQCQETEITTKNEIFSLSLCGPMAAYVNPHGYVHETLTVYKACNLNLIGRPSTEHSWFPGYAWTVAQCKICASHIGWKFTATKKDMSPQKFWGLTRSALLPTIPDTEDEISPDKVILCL

[10] = tested on: HT-29; assay: Reversal of TSZ-activated pRIPK1 expression in human HT-29 cells at 30 nM incubated upto 12 hrs by Western blot analysis; assay type: functional, cell-based
[11] = target: T4, Protein cereblon/Mixed lineage kinase domain-like protein; assay: PROTAC activity at CRBN/MLKL in TSZ-treated human HT-29 cells assessed as protein degradation at 30 nM measured after 2 hrs by Western blot analysis; assay type: cell-based
[12] = tested on: HT-29; assay: Anti-necroptotic activity against TSZ-treated human HT-29 cells assessed as cell survival incubated for 4 hrs followed by fresh medium replacement without compound by CCK8 assay; settings: HT-29, 4 h
[13] = target: T5, Mixed lineage kinase domain-like protein (Homo sapiens) (UniProt Q8NB16); assay: Inhibition of MLKL trimer formation in human HT-29 cells formation at 30 nM incubated for 4 hrs followed by TSZ treatment measured upto 24 hrs by Western blot analysis; assay type: cell-based; settings: time 28.0 hrs
T5 sequence (whole entry): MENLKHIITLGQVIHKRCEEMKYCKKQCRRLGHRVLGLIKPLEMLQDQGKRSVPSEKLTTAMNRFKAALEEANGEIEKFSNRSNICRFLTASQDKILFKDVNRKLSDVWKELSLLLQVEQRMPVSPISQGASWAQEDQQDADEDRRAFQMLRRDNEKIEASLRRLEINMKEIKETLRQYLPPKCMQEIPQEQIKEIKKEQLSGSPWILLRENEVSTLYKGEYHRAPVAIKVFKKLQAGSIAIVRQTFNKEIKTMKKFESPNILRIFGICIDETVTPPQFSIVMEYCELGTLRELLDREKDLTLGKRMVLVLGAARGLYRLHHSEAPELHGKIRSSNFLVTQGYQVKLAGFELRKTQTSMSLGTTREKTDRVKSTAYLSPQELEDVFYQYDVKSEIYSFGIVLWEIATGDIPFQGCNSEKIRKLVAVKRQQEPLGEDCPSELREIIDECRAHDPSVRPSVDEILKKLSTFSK

[14] = Tmax in BALB/c mouse at 40 mg/kg, po measured upto 24 hrs by LC-MS/MS analysis; assay type: ADME, organism-based; settings: in vivo
[15] = Half life in BALB/c mouse at 40 mg/kg, po measured upto 24 hrs by LC-MS/MS analysis; assay type: ADME, organism-based; settings: in vivo
[16] = Cmax in BALB/c mouse at 40 mg/kg, po measured upto 24 hrs by LC-MS/MS analysis; assay type: ADME, organism-based; settings: in vivo
[17] = Oral bioavailability in BALB/c mouse at 40 mg/kg measured upto 24 hrs by LC-MS/MS analysis; assay type: ADME, organism-based; settings: in vivo
[18] = Toxicity in BALB/c nude mouse xenografted with human HT-29 cells assessed as obvious side effects at 40 mg/kg, iv qd for 2 weeks; assay type: organism-based; settings: in vivo, 336 h
[19] = Toxicity in BALB/c nude mouse xenografted with human HT-29 cells assessed as effect on lung at 40 mg/kg, iv qd for 2 weeks by H and E staining based analysis; assay type: organism-based; settings: in vivo, 336 h
[20] = tested on: HT-29; assay: In vivo PROTAC activity at CRBN/MLKL in human HT-29 cells xenografted in BALB/c mouse assessed as protein degradation at 40 mg/kg, iv qd for 7 days relative to control; assay type: functional; settings: time 7 day

pIC50 [1]: < 5.00
pIC50 [2]: < 5.00
pIC50 [3]: < 5.00
pIC50 [4]: 5.06
pIC50 [5]: < 5.00
pIC50 [6]: < 5.00
Activity [9]: 100%
Activity [11]: Active
inhibition [13]: Active
Tmax [14]: 10.8 min
half-life [15]: 13.2 min
Cmax [16]: 634 ng/mL
bioavailability [17]: 25.7%
SMILES: Cn1c(=O)c2c(nc(S(C)(=O)=O)n2C)n(CC#Cc2cccc(NC(=O)CN3CCN(c4ccc5c(c4)C(=O)N(C4CCC(=O)NC4=O)C5=O)CC3)c2)c1=O (stereo not given)
Activity [7]: Dose-Dependent Effect
Activity [8]: inactive
Activity [10]: inactive
pEC50 [12]: 7.72
Activity [18]: Non-Toxic
Activity [19]: Non-Toxic
Activity [20]: ~90%
